Experimental findings from ChEMBL document CHEMBL5113419 are described below.

In general, pKi refers to the negative decadic logarithm of the Ki, by convention in mol/L.

Molecules are shown by their SMILES. pKi: −log10 of the molar value. Calls of active or inactive are those of the source. No cut-off for these calls is given here.

For data set [1], the system named is Influenza A virus. The data set is described as follows: Antiviral activity against Influenza A virus H9N2 infected in MDCK-II cells assessed as reduction in comet-shaped foci at 50 uM measured after 24 hrs by immunostaining based assay. Format: functional, organism-based.
The target in data set [2] is Coagulation factor X (Homo sapiens, UniProt P00742). The data set is described as follows: Binding affinity to FXa (unknown origin) using Mes-DArg-Pro-Arg-AMC as substrate.
Sequence of Coagulation factor X (P00742 41-179 limits assumed): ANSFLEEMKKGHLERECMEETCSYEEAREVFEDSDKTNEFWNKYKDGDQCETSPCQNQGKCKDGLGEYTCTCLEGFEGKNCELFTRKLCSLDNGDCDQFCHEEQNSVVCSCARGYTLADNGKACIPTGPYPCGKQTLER
Sequence of Coagulation factor X (P00742 235-488 limits assumed): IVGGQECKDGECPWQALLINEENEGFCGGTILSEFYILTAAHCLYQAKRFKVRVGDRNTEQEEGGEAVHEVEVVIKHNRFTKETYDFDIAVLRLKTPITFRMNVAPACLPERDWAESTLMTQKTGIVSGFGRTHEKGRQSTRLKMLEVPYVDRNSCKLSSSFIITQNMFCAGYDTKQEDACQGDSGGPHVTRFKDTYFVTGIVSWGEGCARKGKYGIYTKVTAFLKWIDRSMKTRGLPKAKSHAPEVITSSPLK
The nature of data set [3]: Binding affinity to bovine trypsin assessed as inhibition constant […]. Also on record: species or system Bos taurus.
In data set [4] the test system is MDCK-II. The data set is described as follows: Cytotoxicity against MDCK-II cells assessed as reduction in cell viability at 50 uM measured for 24 hrs by Celltiter-glo luminescent assay. Format: toxicity, cell-based, Canis lupus familiaris. To be noted: dog. In general terms: Cellular ATP, detected with luciferase, serves as a proxy for viable cell number.
Data set [5] has as its target T1, Suppressor of tumorigenicity 14 protein (Homo sapiens, UniProt Q9Y5Y6).
T1 sequence (Q9Y5Y6 whole entry): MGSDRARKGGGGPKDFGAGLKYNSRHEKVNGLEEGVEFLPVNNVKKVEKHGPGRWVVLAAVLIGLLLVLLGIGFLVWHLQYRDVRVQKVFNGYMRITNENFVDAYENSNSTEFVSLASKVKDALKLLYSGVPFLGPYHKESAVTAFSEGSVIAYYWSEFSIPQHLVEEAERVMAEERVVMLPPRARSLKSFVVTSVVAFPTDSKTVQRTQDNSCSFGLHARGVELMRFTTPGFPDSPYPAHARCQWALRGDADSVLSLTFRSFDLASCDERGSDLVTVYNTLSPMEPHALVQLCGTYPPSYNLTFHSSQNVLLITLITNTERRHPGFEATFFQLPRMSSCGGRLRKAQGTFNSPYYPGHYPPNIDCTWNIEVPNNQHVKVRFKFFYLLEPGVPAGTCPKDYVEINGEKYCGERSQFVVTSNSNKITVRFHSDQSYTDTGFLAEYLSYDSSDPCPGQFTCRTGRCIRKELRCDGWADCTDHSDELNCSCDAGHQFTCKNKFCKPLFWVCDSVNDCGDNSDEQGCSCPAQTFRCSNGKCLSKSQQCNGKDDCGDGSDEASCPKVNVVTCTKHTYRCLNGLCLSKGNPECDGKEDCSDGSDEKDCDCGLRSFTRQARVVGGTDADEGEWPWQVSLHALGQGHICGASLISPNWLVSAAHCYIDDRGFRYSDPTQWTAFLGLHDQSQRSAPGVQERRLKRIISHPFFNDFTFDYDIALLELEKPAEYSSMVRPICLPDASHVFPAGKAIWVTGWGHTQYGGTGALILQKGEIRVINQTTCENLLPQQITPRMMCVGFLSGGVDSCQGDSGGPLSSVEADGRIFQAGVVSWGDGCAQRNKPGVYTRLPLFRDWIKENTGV
The data set is described as follows: Binding affinity to N-terminal MRGS(His)6GSDDDDK-tagged Matriptase (unknown origin) expressed in Escherichia coli assessed as inhibition constant using Mes-DArg-Pro-Arg-AMC as substrate.

The test system of data set [6] is Influenza A virus. Briefly: Antiviral activity against Influenza A virus H9N2 infected in MDCK-II cells assessed as reduction in viral titer in supernatants at 5 to 50 uM measured after 24 hrs by plaque assay. It is filed as functional, organism-based. As to conditions: dose 5-50 µM.
The species entered for data set [7] is Homo sapiens. Briefly: Selectivity ratio of Ki for binding affinity to FXa (unknown origin) using Mes-DArg-Pro-Arg-AMC as substrate to Ki for binding affinity to N-terminal MRGS(His)6GSDDDDK-tagged Matriptase (unknown origin ) expressed in Escherichia coli assessed as inhibition constant using Mes-DArg-Pro-Arg-AMC as substrate.
Data set [8] relates to Influenza A virus. The data set is described as follows: Antiviral activity against Influenza A virus H9N2 infected in MDCK-II cells assessed as reduction in comet-shaped foci at 20 uM measured after 24 hrs by immunostaining based assay. Format: functional, organism-based.
Data set [9] has as its system Influenza A virus. The data set is described as follows: Antiviral activity against Influenza A virus H9N2 infected in MDCK-II cells assessed as inhibition of viral replication measured after 24 hrs by immunostaining based assay. Format: functional, organism-based. To be noted: DDE = dose-dependent effect.
A short description of data set [10]: Selectivity ratio of Ki for binding affinity to bovine thrombin assessed as inhibition constant using tosyl-Gly-Pro-Arg-AMC as substrate to Ki for binding affinity to N-terminal MRGS(His)6GSDDDDK-tagged Matriptase (unknown origin) expressed in Escherichia coli assessed as inhibition constant using Mes-DArg-Pro-Arg-AMC as substrate. As to conditions: Homo sapiens.

Data set [11] addresses Prothrombin (Bos taurus, UniProt P00735). The data set is described as follows: Binding affinity to bovine thrombin assessed as inhibition constant using tosyl-Gly-Pro-Arg-AMC as substrate.
Data set [12] concerns Influenza A virus. Briefly: Antiviral activity against Influenza A virus H9N2 infected in MDCK-II cells assessed as inhibition of viral replication at 5 uM measured after 24 hrs by immunostaining based assay. It is filed as functional, organism-based.

Consider `CC(C)(C)NC(=O)NC1CCN(C(=O)[C@H](Cc2cccc(C(=N)N)c2)NS(=O)(=O)c2cccc(-c3ccc(CO)c(F)c3)c2)CC1`, for which the outcome in data set [1], in data set [6] and in data set [8] was Active. The pKi in data set [2] is 6.72; in [3] it was 9.22; in [5], 7.82; in data set [11], 4.64. The Activity result in data set [4] is “Toxic”; in data set [9], “Dde”. Moreover, the Ratio Ki in data set [7] amounted to 13; in data set [10], 1530.
For the compound `CC(C)(C)NC(=O)NC1CCN(C(=O)[C@H](Cc2cccc(C(=N)N)c2)NS(=O)(=O)c2cccc(-c3cccc(C(=N)N)c3)c2)CC1`, the result in [1], in data set [6], in data set [12] and in [8] was Active. The pKi in [2] is 8.05; in [3], 8.30; in [5] it was 9.15; in data set [11], 5.59. The Activity entry in data set [4] is “Toxic”; in data set [9], “Dde”. Further, the results for the Ratio Ki in data set [7] and in data set [10] were 13 and 3640, respectively.
